Assay results as given in US20250100961A1, “CHEMICAL ENTITIES FOR TREATING ACUTE MUSCULOSKELETAL PAIN, NON-SPECIFIC LOW-BACK PAIN, INFLAMMATORY ARTHRITIS RELATED DISEASES AND CONDITIONS, AND COMPOSITIONS AND METHODS THEREOF” (X-Cutag Therapeutics (Suzhou) Limited, priority 2023, published 2025).
Each block holds one molecule with its values, some of them ahead of it.

What was measured:
[1] = IV co-administration of CTG06-05 and methocarbamol (1:1) to mice, plasma concentrations by LC-MS/MS; assay type: in vivo; conditions: mouse plasma, 1/1 co-administration, IV 0.5 mg/kg each, FIG. 2
Experimental: Example 2: Co-Administration of CTG06-05 and Methocarbamol (1:1) to Mice and LC-MS/MS Analysis of Mouse Plasma Samples
Mouse plasma samples were collected at intervals of 2, 7, 10, 15, 30, 45, and 60 minutes after an IV dose of CTG06-05 and methocarbamol at a 1:1 ratio (0.5 mg/kg each). Plasma samples were extracted via protein precipitation. The supernatant at each time point was transferred to a clean vial and analyzed by LC-MS/MS as described in Example 1.

[2] = Co-administration of methocarbamol and CTG06-05 in rats, plasma time-concentration curves; assay type: in vivo, rat
Description: Differentiation in drug toxicity profiles. Methocarbamol and CTG06-05 were co-administered in rats and plasma samples were collected at various timepoints. […] This indicates a distinct toxicity profile for CTG06-05 compared to methocarbamol, particularly when the toxicity is driven by Cmax. Cmax is the maximum (or peak) plasma concentration that a drug achieves in a specified compartment or test area of the body after the drug has been administered.
Differentiation in drug distribution volumes. Concentration ratios of CTG06-05 to methocarbamol in rat plasma samples from the aforementioned experiment were determined. […] Drug distribution volume (Vd) is defined as the total amount of drug in the body divided by its concentration in plasma. Vd reflects the degree to which the drug is present in extravascular tissues rather than in the plasma. Therefore, when the total amount of drug is the same, for example, 1:1 co-administration, drug plasma concentration is a direct parameter in Vd comparison. In other words, the higher the concentration, the lower the Vd.

[3] = Co-incubation of methocarbamol and CTG06-05 in rat liver microsomes (1/1); assay type: in vitro ADME; conditions: co-incubated 1/1, FIG. 1
Description: Differentiation in drug elimination half-lives. […] The elimination half-life (T1/2) is the time it takes for the elimination processes to reduce the concentration level or the amount of drug in the system by 50%. Elimination half-life is a composite pharmacokinetic parameter determined by both clearance and volume of distribution (Vd). Elimination half-life is increased by an increase in volume of distribution or a decrease in clearance, and vice versa.
Preparation of Reaction Mixture: The microsome reaction mixtures were prepared as follows: for a total volume of 285 μL of reaction mixture, 274.5 μL of 1×PBS, 3 μL of the test compound, and 7.5 μL of 5 mg/mL microsomes were added. As a negative control, microsome-free samples were prepared by substituting the microsome solution in the reaction mixture with an equal volume of 1×Phosphate Buffer Solution (pH 7.4). The reaction mixture was prepared in triplicates. In addition, dextromethorphan was used in this assay as a positive control.
Incubation and Processing of Reaction: The reaction mixture was initiated by adding 10 μL of NADPH and incubated in a water bath at 37° C. […]
LC-MS/MS analysis: Reversed-phase liquid chromatographic separation was carried out using ACE 3 C18 column (50×2.1 mm id, 3 μm). […] Compounds were monitored in positive mode over a five-minute acquisition period using a triple quadrupole mass spectrometer. […]

[4] = Administration of CTG06-06 and methocarbamol to rats, LC-MS/MS of urine for parent drug and conjugates; assay type: in vivo; conditions: rat urine
Description: Differentiation in drug conjugation reactions. […] […] Conjugation is a phase II metabolism reaction in which an acid, for example, glucuronic acid, acts as a conjugating agent to link to a phase I metabolite covalently. The conjugate so formed would be excreted to urine. To most drugs, this is a necessary detoxicating process. As for methocarbamol, this could be a disadvantage because the acid directly forms a conjugate with the drug itself, not its metabolite, and thus, to reduce drug plasma concentration level immediately after administration. This is due to the presence of an OH group in the chemical structure of methocarbamol, which readily allows it to form conjugates with an acid. To inhibit this pathway, CTG06-06 was designed with the OH group replaced by a fluorine (F). This modification is anticipated to slow the drug elimination rate while maintaining a consistently high drug plasma concentration.
Example 3: Co-Administration of CTG06-06 and Methocarbamol (1:1) to Rats and LC-MS/MS Analysis of Rat Urine Samples
Rat urine samples were collected after an oral dose of CTG06-06 and methocarbamol at 1:1 ratio (0.5 mg/kg each).

liver = conditions: in vivo; cited from earlier work
[5] = oral; cited from earlier work
[6] = tested on: skeletal muscle contractility or motor nerve fiber; conditions: cited from earlier work

C0 compared to methocarbamol [1]: lower C0
T1/2 compared to methocarbamol [1]: longer T1/2
drug distribution volume (Vd) compared to methocarbamol ([2]; inferred from plasma concentrations after 1:1 co-administration): lower Vd value than methocarbamol
initial concentration in plasma compared to methocarbamol ([2]; rat plasma, co-administered, FIG. 2): lower than that of methocarbamol
concentration ratio of CTG06-05 to methocarbamol in plasma ([2]; rat plasma, co-administered, FIG. 3): increased with time
SMILES: [2H]c1c([2H])c([2H])c(OC([2H])([2H])[2H])c(OCC(O)COC(N)=O)c1[2H] (stereo not drawn) [CTG06-05]
later concentration in plasma compared to methocarbamol ([2]; rat plasma, co-administered, later timepoints, FIG. 2): eventually exceeded that of methocarbamol
drug elimination half-life compared to methocarbamol [3]: longer drug elimination half-life compared to methocarbamol

SMILES: COc1ccccc1OCC(F)COC(N)=O (stereo not drawn) [CTG06-06]
drug conjugation reaction ([4]; separate administration (FIG. 4 legend)): eliminates the drug conjugation reaction in rats

SMILES: COc1ccccc1OCC(O)COC(N)=O (stereo not drawn) [methocarbamol]
liver toxicity (liver): No liver toxicity is observed
time to peak plasma concentration [5]: two
conjugates of the drug in urine ([4]; co-administered, oral 0.5 mg/kg each, LC-MS/MS, FIG. 4): methocarbamol and its conjugates were detected
direct effect on skeletal muscle contractility or motor nerve fiber [6]: no direct effect
